The subject of the assay is parasites (ring stage parasites, parasite growth). As to the kind of experiment: Parasite LDH growth assay (Parasite Assay), antiparasite potency. In kind it is cell-based. The conditions noted are these: 72 hours growth, LDH readout. Put shortly:
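Ring-stage culture was adjusted to 0.7% parasitemia and 2% haematocrit in bicarbonate-buffered RPMI-Hepes with heat-inactivated human serum and 0.5% albumax, then added to compound. Plates were incubated 72 h at 37 °C in gassed humidified boxes, frozen at −80 °C overnight and thawed, and growth was read by LDH assay.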

The term EC50 denotes the concentration at which the effect is half-maximal.

Where the note is “Table 3”, `COCC[C@H]([C@@H]1C[C@H]1C(=O)NC1CC(C)(C)Oc2c(F)cccc21)N1C(=N)NC(C)(C)CC1=O` (stereo partly shown) [Example 111B] displayed a concentration for a half-maximal effect (EC50) of 15 nM. In other words, the double-digit nanomolar range. `CCC1(CC)CC(=O)N([C@H](CCOC)[C@@H]2C[C@H]2C(=O)N[C@H]2c3ccccc3OC(C)(C)[C@@H]2O)C(=N)N1` [Example 144] returned an EC50 (72 h, Table 4 (unit inferred)) of 165 nM. Take `CC1(C)CC(=O)N(C[C@@H]2C[C@H]2C(=O)N[C@H]2CC(C)(C)Oc3ccc(Cl)cc32)C(=N)N1` [Example 95]: the EC50 (72 h, Table 3) is 110 nM. Same read-out and setting: next, `COCC[C@H]([C@@H]1C[C@H]1C(=O)N[C@@H]1CC(C)(C)Oc2cc(C)ccc21)N1C(=N)NC(C)(C)CC1=O` [Example 83B]: 26 nM. As for `CCC1(CC)CC(=O)N(C[C@@H]2C(C)[C@H]2C(=O)N[C@H]2CC(C)(C)Oc3ccccc32)C(=N)N1` (single isomer, unassigned) [Example 25B], where the note is “Table 3”, the EC50 amounted to 25 nM.

In the case of `COCC[C@H]([C@@H]1C[C@H]1C(=O)NC1CC2(CCC2)Oc2ccccc21)N1C(=N)NC(C)(C)CC1=O` (stereo partly shown) [Example 131A], the EC50 (72 h, Table 3) was found to be 6.8 nM. Same read-out and setting: next, `CCC1(CC)CC(=O)N(C[C@@H]2C[C@H]2C(=O)N[C@@H]2C[C@@H](C(F)(F)F)Oc3ccccc32)C(=N)N1` [Example 8B]: 5.3 nM; `CC1(C)CC(=O)N([C@H](c2cncc(Cl)c2)[C@@H]2C[C@H]2C(=O)N[C@H]2C[C@H](C(F)(F)F)Oc3ccccc32)C(=N)N1` [Example 60A]: 0.5 nM. Molecule `CC1(C)CC(=O)N([C@H](c2cccnc2)[C@@H]2C[C@H]2C(=O)N[C@H]2CC(C)(C)Oc3ccccc32)C(=N)N1` [Example 26] showed a half-maximal effective concentration (EC50) (72 h, Table 3) of 4.7 nM. Turning to `CCC1(CC)CC(=O)N(C[C@@H]2C(C)[C@H]2C(=O)NC2c3ccccc3OC2(C)C)C(=N)N1` (stereo partly shown) [Example 36B], the concentration giving a half-maximal response (EC50) (Table 3) worked out at 301 nM. The same measure, in the same setting: next, `CC(C)C1(C)CC(NC(=O)[C@@H]2C[C@H]2[C@@H](c2cccnc2)N2C(=N)NC(C)(C)CC2=O)c2ccccc2O1` (single isomer, unassigned) [Example 81C]: 0.9 nM. Turning to `CCC1(CC)CC(=O)N(C(CC(C)OC)[C@@H]2C[C@H]2C(=O)N[C@@H]2CC(C)(C)Oc3ccccc32)C(=N)N1` (single isomer, unassigned) [Example 143A], the concentration for a half-maximal effect (EC50) (Table 4 (unit inferred)) was determined as 4.6 nM. This counts as single-digit nanomolar.

The molecule `COc1cncc([C@H]([C@@H]2C[C@H]2C(=O)N[C@@H]2c3ccccc3OC(C)(C)[C@H]2O)N2C(=N)NC(C)(C)CC2=O)c1` [Example 42] gave an EC50 (72 h, Table 3) of 18.4 nM.

On to `CC1(C)CC(=O)N([C@H](c2cccnc2)[C@@H]2C[C@H]2C(=O)NC2CC(C)(C)Oc3c(F)cc(F)cc32)C(=N)N1` (stereo partly shown) [Example 122A], for which the half-maximal effective concentration (EC50) (72 h, Table 3) worked out at 2.3 nM. Molecule `CCC1(CC)CC(=O)N(C[C@@H]2C(C)[C@H]2C(=O)N[C@@H]2c3ccccc3OCC2(C)O)C(=N)N1` (single isomer, unassigned) [Example 35A] showed an EC50 (Table 3) of 85 nM. That is a double-digit nanomolar value. `CC[C@]1(C)CC(=O)N([C@H](CCOC)[C@@H]2C[C@H]2C(=O)N[C@H]2C[C@H](C(F)(F)F)Oc3ccccc32)C(=N)N1` [Example 62B] registered an EC50 (72 h, Table 3) of 0.8 nM.

Turning to `CCC1(CC)CC(=O)N(C[C@H]2[C@H](C(=O)N[C@H]3CC(C)(C)Oc4ccccc43)C2(C)C)C(=N)N1` [Example 34], the EC50 (72 h, Table 3) was found to be 286 nM. As to `CCC1(CC)CC(=O)N(CC2C(C(=O)N[C@H]3CC(C)(C)Oc4ccccc43)C2(F)F)C(=N)N1` (single isomer, unassigned) [Example 16B], the EC50 (Table 3) came out at 119 nM. `CC[C@]1(C)CC(=O)N([C@H](CCOC)[C@@H]2C[C@H]2C(=O)NC2CC(C)(C)Oc3ccc(OC(F)(F)F)cc32)C(=N)N1` (stereo partly shown) [Example 129A] registered a concentration for a half-maximal effect (EC50) (72 h, Table 3) of 1.3 nM. In the case of `CC[C@]1(C)CC(=O)N([C@H](CCOC)[C@@H]2C[C@H]2C(=O)NC2CC(C)(C)Oc3ccc(F)cc32)C(=N)N1` (single isomer, unassigned) [Example 130B], it took 2.4 nM to reach a half-maximal effect (Table 3) (EC50). For the setting “Table 4 (unit inferred)”, `CCC1(CC)CC(=O)N([C@H](CCOC)[C@@H]2C[C@H]2C(=O)NC2CC(C)(C)Oc3cccc(Cl)c32)C(=N)N1` (stereo partly shown) [Example 149B] registered an EC50 of 1.2 nM. As for `CC1(C)CC(=O)N([C@H](c2cccnc2)[C@@H]2C[C@H]2C(=O)N[C@H]2CC(C)(C)Oc3ccc(Cl)cc32)C(=N)N1` [Example 120], the EC50 (72 h, Table 3) stood at 1 nM.

Take `CC[C@]1(C)CC(=O)N(C(c2cncc(F)c2)[C@@H]2C[C@H]2C(=O)N[C@@H]2c3ccccc3OC(C)(C)C2(C)O)C(=N)N1` (single isomer, unassigned) [Example 103B]: where the note is “Table 3”, the EC50 amounted to 2.1 nM.

In the case of `COCC1(C)CC(NC(=O)[C@@H]2C[C@H]2[C@@H](c2cccnc2)N2C(=N)NC(C)(C)CC2=O)c2ccccc2O1` (single isomer, unassigned) [Example 108C], for the setting “Table 3”, the EC50 was determined as 6 nM.

For `CCC1(CC)CC(=O)N(C(CC(C)OC)[C@@H]2C[C@H]2C(=O)N[C@@H]2CC(C)(C)Oc3ccccc32)C(=N)N1` (single isomer, unassigned) [Example 143B], the concentration giving a half-maximal response (EC50) (Table 4 (unit inferred)) amounted to 2.4 nM.

The molecule `CC1(C)CC(=O)N(C(c2cccnc2)[C@H]2[C@H](C(=O)N[C@H]3CC(C)(C)Oc4ccccc43)C2(C)C)C(=N)N1` (stereo partly shown) [Example 49B] had a 50% effective concentration (EC50) (Table 3) of 14 nM. `CC1(C)CC(=O)N(C[C@@H]2C[C@H]2C(=O)N[C@H]2CC(C)(C)Oc3ccc(F)cc32)C(=N)N1` [Example 71]: for the setting “72 h, Table 3”, the response was half-maximal at 125 nM (EC50).

For the setting “Table 4 (unit inferred)”, `CCC1(CC)CC(=O)N(C(CC(C)OC)[C@@H]2C[C@H]2C(=O)N[C@H]2CC(C)(C)Oc3ccccc32)C(=N)N1` (single isomer, unassigned) [Example 142D] registered an EC50 of 115 nM. `CC1[C@@H](C(c2cccnc2)N2C(=N)NC(C)(C)CC2=O)[C@@H]1C(=O)N[C@H]1C[C@H](C(F)(F)F)Oc2ccccc21` (single isomer, unassigned) [Example 54A] displayed a 50% effective concentration (EC50) (Table 3) of 1 nM. `CC1(C)CC(=O)N(C[C@@H]2C[C@H]2C(=O)N[C@H]2CC(C)(C)Oc3cc(Cl)ccc32)C(=N)N1` [Example 90] had a concentration giving a half-maximal response (EC50) (72 h, Table 3) of 225 nM. Where the note is “Table 3”, `COCC1(C)CC(NC(=O)[C@@H]2C[C@H]2[C@@H](c2cccnc2)N2C(=N)NC(C)(C)CC2=O)c2ccccc2O1` (single isomer, unassigned) [Example 108B] had an EC50 of 3.7 nM. Molecule `COCC[C@H]([C@@H]1C[C@H]1C(=O)N[C@H]1C[C@H](C(F)(F)F)Oc2ccccc21)N1C(=N)N[C@](C)(C(C)C)CC1=O` [Example 21A] came in with an EC50 (Table 3) of 260 nM. Regarding `COc1cccc2c1C(NC(=O)[C@@H]1C[C@H]1[C@@H](c1cccnc1)N1C(=N)NC(C)(C)CC1=O)CC(C)(C)O2` (stereo partly shown) [Example 96A], for the setting “72 h, Table 3”, it took 2.7 nM to reach a half-maximal effect (EC50).

Take `CC1(C)CC(=O)N([C@@H](c2ccc(C#N)cc2)[C@@H]2C[C@H]2C(=O)N[C@H]2CC(C)(C)Oc3ccccc32)C(=N)N1` [Example 45B]: where the note is “72 h, Table 3”, the midpoint of the response, the EC50, lay at 220 nM. Same read-out and setting: the value for `COc1cncc([C@H]([C@@H]2C[C@H]2C(=O)N[C@H]2C[C@H](C(F)(F)F)Oc3ccccc32)N2C(=N)NC(C)(C)CC2=O)c1` [Example 41] was 1.1 nM. Where the note is “Table 3”, `CCC1(CC)CC(=O)N(CC2C(C(=O)N[C@H]3CC(C)(C)Oc4ccccc43)C2(F)F)C(=N)N1` (single isomer, unassigned) [Example 16A] yielded an EC50 of 33 nM. With `COCC[C@H]([C@@H]1C[C@H]1C(=O)NC1CC(C)(C)Oc2cc(F)ccc21)N1C(=N)NC(C)(C)CC1=O` (stereo partly shown) [Example 76A], where the note is “72 h, Table 3”, the midpoint of the response, the EC50, lay at 17 nM. For the setting “Table 3”, `COCC[C@H]([C@@H]1C[C@H]1C(=O)NC1CC(C)(C)Oc2ccccc21)N1C(=N)NC(C)(C)CC1=O` (stereo partly shown) [Example 23B] had an EC50 of 15 nM. `CCC1(CC)CC(=O)N([C@H](CCOC)[C@@H]2C[C@H]2C(=O)NC2CC(C)(C)Oc3c(Cl)cccc32)C(=N)N1` (stereo partly shown) [Example 148B]: it took 1.9 nM to reach a half-maximal effect (Table 4 (unit inferred)) (EC50). This counts as single-digit nanomolar. For the molecule `CCC1(C)CC(NC(=O)[C@@H]2C[C@H]2[C@@H](c2cccnc2)N2C(=N)NC(C)(C)CC2=O)c2ccccc2O1` (single isomer, unassigned) [Example 105B], the concentration for a half-maximal effect (EC50) (Table 3) stood at 1.8 nM. Under “72 h, Table 3”, `COCC[C@H]([C@@H]1C[C@H]1C(=O)N[C@@H]1CC(C)(C)Oc2cccc(Cl)c21)N1C(=N)NC(C)(C)CC1=O` [Example 116B] had an EC50 of 18 nM. The same measure, in the same setting: the value for `COCC[C@H]([C@@H]1C[C@H]1C(=O)N[C@@H]1CC(C)(C)Oc2cc(C)c(Cl)cc21)N1C(=N)NC(C)(C)CC1=O` [Example 137A] was 12 nM. The same measure, in the same setting: the value for `CC1(C)CC(=O)N([C@H](c2cccnc2)[C@@H]2C[C@H]2C(=O)N[C@@H]2CC(C)(C)Oc3cc(Cl)ccc32)C(=N)N1` [Example 91B] was 2.7 nM; that for `COCC[C@H]([C@@H]1C[C@H]1C(=O)N[C@H]1CC(C)(C)Oc2cc(OC(F)(F)F)ccc21)N1C(=N)NC(C)(C)CC1=O` [Example 134B] was 25 nM.

Consider `CCC1(CC)CC(=O)N(C(CC(C)OC)[C@@H]2C[C@H]2C(=O)N[C@@H]2CC(C)(C)Oc3ccccc32)C(=N)N1` (single isomer, unassigned) [Example 143C], for which, where the note is “Table 4 (unit inferred)”, the concentration giving a half-maximal response (EC50) stood at 57.9 nM. `COCC[C@H]([C@@H]1C[C@H]1C(=O)N[C@@H]1CC(C)(C)Oc2cc(OC)ccc21)N1C(=N)NC(C)(C)CC1=O` [Example 70A]: the EC50 (72 h, Table 3) stood at 77 nM. On the same count and under the same terms, next, `CCC1(CC)CC(=O)N([C@H](CCOC)[C@@H]2C[C@H]2C(=O)N[C@H]2C[C@H](C(F)(F)F)Oc3ccccc32)C(=N)N1` [Example 14]: 0.9 nM.

Under “72 h, Table 3”, `Cc1ccc2c(c1)OC(C)(C)C[C@H]2NC(=O)[C@@H]1C[C@H]1[C@@H](c1cccnc1)N1C(=N)NC(C)(C)CC1=O` [Example 85A] registered a concentration giving a half-maximal response (EC50) of 2.4 nM. Same read-out and setting: the value for `CC1(C)CC(=O)N(C[C@@H]2C[C@H]2C(=O)N[C@H]2CC(C3CC3)Oc3ccccc32)C(=N)N1` (stereo partly shown) [Example 140A] was 220 nM. In turn, `CCC1(C)CC(NC(=O)[C@@H]2C[C@H]2[C@@H](CCOC)N2C(=N)NC(C)(C)CC2=O)c2ccccc2O1` (single isomer, unassigned) [Example 75C] displayed a concentration for a half-maximal effect (EC50) (Table 3) of 7 nM. Consider `Cc1ccc2c(c1)OC(C)(C)C[C@@H]2NC(=O)[C@@H]1C[C@H]1[C@@H](c1cccnc1)N1C(=N)NC(C)(C)CC1=O` [Example 85B], for which the midpoint of the response (72 h, Table 3), the EC50, lay at 0.9 nM.

Take `CCC1(CC)CC(=O)N([C@H](c2cccnc2)[C@@H]2C[C@H]2C(=O)N[C@H]2c3ccccc3OC(C)(C)[C@@H]2O)C(=N)N1` [Example 11A]: the 50% effective concentration (EC50) (72 h, Table 3) turned out to be 4.1 nM.

Values taken from US12338219B2, “Antimalarial agents” (Merck Sharp & Dohme LLC, priority 2019, dated 2025).
